Patent publication US8394773B2, “Use of an alkyl glycoside or of a mixture of alkyl glycosides having anti-ageing and/or calming properties as active agents in cosmetic compositions, and methods of cosmetic care using said compositions” (LVMH Recherche, priority 2008, dated 2013)

Experiments:
PGE2 = assay: Quantification of the release of PGE2 into culture supernatants of HaCaT keratinocytes (immunoenzymatic kit, related to total proteins); format: cell-based; settings: for Inhibitory activity (%) (release of PGE2) / pg PGE2/mg prot / Liberation PGE2 (%): alkyl glycoside alone at 1 μM, 24 hours, HaCaT; for Liberation PGE2 (%): control (-) = 100
Method: PGE2 is an important marker of inflammatory response linked to tissue damage. It is produced by a wide variety of cells including monocytes, macrophages or keratinocytes.
(§1) The release of the Il-8 and PGE2 markers into cell line culture supernatants of immortalized keratinocytes (HaCaT), stimulated for 24 hours in the presence of oligosaccharides is quantified.
(§2) HaCaTs are cultured to 80% confluence.
(§3) A treatment is carried out over 24 hours with the product to be evaluated with, in the case of Il-8 alone, a parallel stimulation with interleukin-1.
(§4) The culture supernatants containing the markers are collected and stored at −20° C. up to the day of the assay.
(§5) The assay is carried out with the aid of a kit specific for each of the markers.
Assay of PGE2 by means of the Parameter PGE2 kit (R&D system).
(§6) These HaCaTs are inoculated at the rate of 10 000 cells/well (supplemented KSFM culture medium, Gibco) in a 96-well microplate.
(§7) The plate is placed in an incubator (37° C. and 5% CO2) for 24 hours.
(§8) The oligosaccharides, initially in the form of a 1 mM stock solution in DMSO, are exposed to the cells after suitable dilution in culture medium.
A column is treated with indomethacin as positive control inhibiting the release of PGE2.
(§9) Each concentration of product, the positive control and the control without treatment, are evaluated on 4 or 6 wells of HaCaT.
(§10) After 24 hours of treatment, the culture supernatants are collected and stored at −20° C.
(§11) The assay is carried out according to the protocol described in each of the kits, by an immunoenzymatic test which makes it possible to assay, by spectrophotometric measurement at 450 nm, the respective quantities of Il-8 and of PGE2 present in the supernatants.
(§12) The absorbance (OD) values obtained for the 2-fold dilution series for IL-8 standard and PGE2 standard (7 concentrations, in duplicate) are plotted on a logarithmic graph.
(§13) The known concentrations of IL-8 and PGE2, expressed in pg/ml, are plotted on the x-axis and the absorbance values on the y-axis, in order to obtain a straight line.
(§14) The absorbance values measured for each sample are in turn plotted on the graph, in order to determine the respective IL-8 and PGE2 concentrations, expressed in pg/ml.
(§15) The assay (in mg/ml) of the total proteins present in the cellular pellets, after treatment or non-treatment of the HaCaTs, makes it possible to relate the assay of IL-8 and of PGE2 to the quantity of proteins in each well of cells, expressed in picograms (pg) of markers per milligram (mg) of proteins.
(§16) The absorbance values for the 6 wells are converted to mg of proteins per well of HaCaT by means of the straight line obtained by the calibration series (quantity of proteins known for an absorbance determined at 570 nm).
(§17) Finally, for each well and each treatment condition, a quantitative assay of the release of Il-8 and of PGE2 is obtained, in pg/ml.
The test is carried out at a concentration of alkyl glycosides equal to 1 μM, after dilution in the culture medium.

Il-8 = assay: Quantification of the release of Il-8 into culture supernatants of HaCaT keratinocytes stimulated with Il-1 beta (ELISA, related to total proteins); format: cell-based, human; settings: for Inhibitory activity (%) (release of Il-8) / Liberation Il-8 (%) / pg IL8/mg prot: alkyl glycoside alone at 1 μM, 24 hours; for Inhibitory activity (%) (release of Il-8) / Liberation Il-8 (%): HaCaT + Il-1 beta; for Liberation Il-8 (%): control (-) = 100; for pg IL8/mg prot: HaCaT stimulated with Il-1 beta 25 ng/ml; for anti-Il-8 activity, in words: compounds tested alone, 1 μM
Method: as §1, §2, §3, §4, §5
The assay of human Il-8 by means of the ELISA AbC204/3 kit (Abcys).
as §6, §7, §8
In parallel, for Il-8, the cells are stimulated with Il-1 beta at 25 ng/ml.
A column is treated with cholecalciferol (vitamin D3) at 0.39 μg/ml and stimulated with Il-1 beta, as positive control inhibiting the release of Il-8.
A control column is not treated and stimulated with Il-1 beta.
as §9, §10, §11, §12, §13, §14, §15, §16, §17
This assay is related to a quantity of proteins, expressed in mg/ml. The final quantitative result for Il-8 is therefore expressed in pg/mg of proteins.
The percentage inhibition of the production of IL-8 is calculated as follows: […]
The test is carried out at a concentration of alkyl glycosides equal to 1 μM, after dilution in the culture medium, the negative control is pure DMSO.

SMILES	Inhibitory activity (%) (release of PGE2) (PGE2)	pg PGE2/mg prot (PGE2)	Liberation PGE2 (%) (PGE2)	Inhibitory activity (%) (release of Il-8) (Il-8)	Liberation Il-8 (%) (Il-8)	pg IL8/mg prot (Il-8)	PGE2 inhibiting activity, in words (PGE2; compounds tested alone, 1 μM)	anti-Il-8 activity, in words (Il-8)	anti-Il-8 activity, in words (Il-8; listed as dodecyl maltotrioside)
CCCCCCCCO[C@@H]1O[C@H](CO)[C@@H](O)[C@H](O)[C@H]1O [DP1-8, n-Octyl-beta-D-glucopyranoside, reference compound]	0.3%	312.8 pg/mg prot	99.7%	9.1%	91.0%	1121.6 pg/mg prot			
CCCCCCCCCCCCO[C@@H]1O[C@H](CO)[C@@H](O)[C@H](O)[C@H]1O [DP1-12, n-dodecyl-beta-D-glucopyranoside, reference compound]	52.2%	150.0 pg/mg prot	47.8%	24.6%	75.4%	930.3 pg/mg prot			
CO[C@@H]1O[C@H](CO)[C@@H](O[C@H]2O[C@H](CO)[C@@H](O)[C@H](O)[C@H]2O)[C@H](O)[C@H]1O [DP2-1, methyl beta-D-maltoside]	58.2%	131.3 pg/mg prot	41.8%	59.6%	40.4%	497.7 pg/mg prot			
CCCCCCCCO[C@@H]1O[C@H](CO)[C@@H](O[C@H]2O[C@H](CO)[C@@H](O)[C@H](O)[C@H]2O)[C@H](O)[C@H]1O [DP2-8, octyl beta-D-maltoside]	37.7%	195.5 pg/mg prot	62.3%	69.4%	30.6%	377.7 pg/mg prot			
CCCCCCCCCCCCO[C@@H]1O[C@H](CO)[C@@H](O[C@H]2O[C@H](CO)[C@@H](O)[C@H](O)[C@H]2O)[C@H](O)[C@H]1O [DP2-12, dodecyl beta-D-maltoside]	49.1%	159.8 pg/mg prot	50.9%	82.9%	17.1%	211.0 pg/mg prot			
CO[C@@H]1O[C@H](CO)[C@@H](O[C@H]2O[C@H](CO)[C@@H](O[C@H]3O[C@H](CO)[C@@H](O)[C@H](O)[C@H]3O)[C@H](O)[C@H]2O)[C@H](O)[C@H]1O [DP3-1, methyl beta-D-maltotrioside]	49.1%	159.6 pg/mg prot	50.9%	71.9%	28.1%	346.6 pg/mg prot			
CCCCCCCCCCCCO[C@@H]1O[C@H](CO)[C@@H](O[C@H]2O[C@H](CO)[C@@H](O[C@H]3O[C@H](CO)[C@@H](O)[C@H](O)[C@H]3O)[C@H](O)[C@H]2O)[C@H](O)[C@H]1O [DP3-12, dodecyl beta-D-maltotrioside]	18.8%	171.8 pg/mg prot	81.2%	20.1%	79.9%	521.5 pg/mg prot	acts on both markers	acts on both markers	very small effect on the release of Il-8
